Test system: baculovirus
Assay: TCID50 assay of infectious baculovirus titer after lysis (baculovirus clearance)
Type: cell-based
Conditions: for baculovirus clearance, TCID50 results: study 1, after detergent treatment (FIG. 3); for baculovirus clearance, TCID50 samples: study 2, CLB, all concentrations tested (0.25% through 1%), bulk material 7.8 log TCID50/mL
From the text: A reduction in titer of a rod-like shaped virus, i.e., the factor by which the titer of the virus to be removed is decreased, is preferably at least 5 logs, e.g. after a mixed population of parvoviral particles and 10×10^1 baculoviral virions had been separated in accordance with a method of the invention, no baculoviral virions were then detected in the filtrate. Preferably, the reduction in titer of a rod-like shaped virus that is achieved by a method of the invention is at least 5.5 logs, at least 6 logs, at least 6.5 logs, at least 7 logs, at least 8 logs, at least 9 logs, most preferably at least 10 logs. The titer can be determined by general methods known in the art, such as for example by a Tissue Culture Infectious Dose 50% (TCID50) assay. For example, the infectious baculovirus titer of a population of baculoviral virions in a sample can be determined using a TCID50 assay. This method is based on the infection of monolayers of Sf9 insect cells with infectious baculovirus in a positive control sample. A serial dilution in culture medium of the positive control sample is used to infect the cells. The cells are incubated at +28° C. for 7 days. Subsequently, the supernatants are transferred to newly prepared plates with monolayers of Sf9 insect cells and incubated at +28° C. for 7 days. As infection proceeds, the infected cells are not able to remain attached to each other and to the plate surface and form loose cells, i.e., show cytopathogenic effect (CPE), which can be observed microscopically. The titer in log 10 TCID50/mL is calculated using the Spearman-KArber method.
Analytics performed on samples during these studies included: qPCR to determine vector genome copies (GC) concentration (GC/mL), SEC-HPLC was used to determine total particle (TP) content (TP/mL) which includes empty and full particles which can only be done of samples after affinity chromatography. A TCID50 assay is a measure of infectious baculovirus titer and is used to test clearance of baculovirus after the lysis step where the detergent is added. Potency was determined based on the ability of the product to mediate production of active transgene polypeptide product (here FIX) by Huh-7 cells as compared to a reference sample. Huh-7 cells are infected and cultured to allow production of transgene polypeptide which is then quantified using a commercially obtained activity assay (221805 or 221806 from Hyphen Biomed). LDAO clearance in the drug substance (DS) was measured with an outsourced commercially available chromatographic method.
4.1 different surfactants can be used This first study involved crude bulk material generation using a shaker flask-based protocol following the process outlined in Example 1, until affinity chromatography; where the batch binding method was used. […]

Row | SMILES | baculovirus clearance, TCID50 results | baculovirus clearance, TCID50 samples
1 | CCCCCCCCCCCC[N+](C)(C)[O-] [LDAO, lauryldimethylamine oxide] | below the limit of detection | below the limit of detection
2 | CCCCCCCCCCCCO[C@@H]1O[C@H](CO)[C@@H](O[C@H]2O[C@H](CO)[C@@H](O)[C@H](O)[C@H]2O)[C@H](O)[C@H]1O [DDM, n-dodecyl-beta-D-maltoside] | below the limit of detection | below the limit of detection

Source: patent US20240287545A1, “Improved lysis procedures” (uniQure biopharma B.V., priority 2021, published 2024)
